Results published in patent US9920075B2, “Triazolopyridine and triazolopyrimidine inhibitors of myeloperoxidase” (BRISTOL-MYERS SQUIBB COMPANY, priority 2014, dated 2018).
“And” between values parts separate entries of the source, which are not always exact repeats. Identical values can stand only once.

What follows are compounds tested against T1, myeloperoxidase (MPO) (Homo sapiens, UniProt P05164) (assay: MPO peroxidation assay (Amplex Red assay)). Conditions: MPO peroxidation (Amplex Red), ranges given; read-out: MPO peroxidation assay IC50 values (binned).
T1 sequence (P05164 49-745): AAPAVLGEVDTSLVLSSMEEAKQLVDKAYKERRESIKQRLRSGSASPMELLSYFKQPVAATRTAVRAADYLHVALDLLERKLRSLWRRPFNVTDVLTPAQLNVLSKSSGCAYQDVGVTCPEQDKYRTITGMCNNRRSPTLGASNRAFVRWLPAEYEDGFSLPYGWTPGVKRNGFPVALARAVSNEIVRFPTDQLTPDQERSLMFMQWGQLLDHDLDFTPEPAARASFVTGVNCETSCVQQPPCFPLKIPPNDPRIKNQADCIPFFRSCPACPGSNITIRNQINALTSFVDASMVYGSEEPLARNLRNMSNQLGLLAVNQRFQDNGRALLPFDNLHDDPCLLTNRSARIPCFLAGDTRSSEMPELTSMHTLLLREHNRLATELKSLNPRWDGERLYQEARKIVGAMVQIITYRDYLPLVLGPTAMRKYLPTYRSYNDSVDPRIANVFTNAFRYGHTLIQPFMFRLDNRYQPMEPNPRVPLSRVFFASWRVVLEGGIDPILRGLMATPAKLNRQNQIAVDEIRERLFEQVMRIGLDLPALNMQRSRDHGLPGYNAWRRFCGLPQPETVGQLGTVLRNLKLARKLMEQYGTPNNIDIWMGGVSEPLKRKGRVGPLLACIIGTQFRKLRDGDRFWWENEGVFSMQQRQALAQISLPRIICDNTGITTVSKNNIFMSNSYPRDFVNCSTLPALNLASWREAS
Assay type: biochemical
Experimental: MPO Peroxidation Assay (Amplex Red Assay)
MPO peroxidation activity was measured in 100 mM KPi (pH 7.4) by utilizing the non-fluorescent reagent Amplex Red (Invitrogen Cat. #A12222) which can be oxidized to the highly fluorescent resorufin. Amplex Red is oxidized by the peroxidase action of MPO to resorufin. […] Enzyme and compound were preincubated for ten minutes at room temperature.
After the ten minute preincubation, 25 μL of an Amplex Red mixture containing 200 μM Amplex Red and 10 mM H2O2 was added to the plate.
IC50 values were calculated by determining the slope of the linear portion of the kinetic trace (180-540 secs), and using that calculated slope to determine % inhibition occurring at each concentration of inhibitor using the following equation:
[formula] where A=minimal Y value (activity level of inhibited sample), B=maximal Y value (activity level of uninhibited sample), C=Log IC50, D=Hill Slope, x=concentration of inhibitor. MPO Chlorination Assay (APF Assay)
`Cc1nn(-c2ccc(Br)cc2)nc1COc1cc(N)nc2[nH]nnc12` [Example 58, 7-((2-(4-Bromophenyl)-5-methyl-2H-1,2,3-triazol-4-yl)methoxy)-3H-[1,2,3]triazolo[4,5-b]pyridin-5-amine] showed an IC50 of 150 to 1000 nM. `Cc1nn(-c2ccc(N3CCNCC3)cc2)nc1COc1cc(N)nc2[nH]nnc12` [Example 63, 7-((5-Methyl-2-(4-(piperazin-1-yl)phenyl)-2H-1,2,3-triazol-4-yl)methoxy)-3H-[1,2,3]triazolo[4,5-b]pyridin-5-amine] gave an IC50 of 60 to 150 nM. With `N#Cc1nn(-c2ccccc2)nc1COc1cc(N)nc2[nH]nnc12` [Example 65, 5-(((5-Amino-3H-[1,2,3]triazolo[4,5-b]pyridin-7-yl)oxy)methyl)-2-phenyl-2H-1,2,3-triazole-4-carbonitrile] the IC50 was at most 60 nM. In the case of `Cc1nn(Cc2ccccc2)nc1COc1cc(N)nc2[nH]nnc12` [Example 66, 7-((2-Benzyl-5-methyl-2H-1,2,3-triazol-4-yl)methoxy)-3H-[1,2,3]triazolo [4,5-b]pyridin-5-amine], the IC50 is reported as at most 60 nM. `Cc1nn(C2CCNCC2)nc1COc1cc(N)nc2[nH]nnc12` [Example 68, 7-((5-Methyl-2-(piperidin-4-yl)-2H-1,2,3-triazol-4-yl)methoxy)-3H-[1,2,3]triazolo[4,5-b]pyridin-5-amine] was tested, and the IC50 was 60 to 150 nM. `Cc1nn(CC2CCNC2)nc1COc1cc(N)nc2[nH]nnc12` (centres unmarked) [Example 69, 7-((5-Methyl-2-(pyrrolidin-3-ylmethyl)-2H-1,2,3-triazol-4-yl)methoxy)-3H-[1,2,3]triazolo[4,5-b]pyridin-5-amine] gave an IC50 of 150 to 1000 nM. In the case of `Cc1nn(Cc2c[nH]cn2)nc1COc1cc(N)nc2[nH]nnc12` [Example 71, 7-((2-((1H-Imidazol-4-yl)methyl)-5-methyl-2H-1,2,3-triazol-4-yl)methoxy)-3H-[1,2,3]triazolo[4,5-b]pyridin-5-amine], the IC50 is reported as 60 to 150 nM and 150 to 1000 nM. `Cc1nn(C[C@@H]2C[C@H](Oc3ccccc3)CN2)nc1COc1cc(N)nc2[nH]nnc12` [Example 73, 7-((5-Methyl-2-(((2S,4S)-4-phenoxypyrrolidin-2-yl)methyl)-2H-1,2,3-triazol-4-yl)methoxy)-3H-[1,2,3]triazolo[4,5-b]pyridin-5-amine] gave an IC50 of at most 60 nM. In the case of `Cc1nn(Cc2cccc(C3CCNCC3)c2)nc1COc1cc(N)nc2[nH]nnc12` [Example 78, 7-((5-Methyl-2-(3-(piperidin-4-yl)benzyl)-2H-1,2,3-triazol-4-yl)methoxy)-3H-[1,2,3]triazolo[4,5-b]pyridin-5-amine], the IC50 is reported as at most 60 nM. Compound `COc1ncc(Br)cc1COc1cc(N)nc2[nH]nnc12` [Example 81, 7-((5-Bromo-2-methoxypyridin-3-yl)methoxy)-3H-[1,2,3]triazolo[4,5-b]pyridin-5-amine] has an IC50 of at most 60 nM. For `Nc1cc(OCc2ccc(C(F)(F)F)o2)c2nn[nH]c2n1` [Example 82, 7-((5-(Trifluoromethyl)furan-2-yl)methoxy)-3H-[1,2,3]triazolo[4,5-b]pyridin-5-amine], the IC50 was at most 60 nM. `Nc1cc(OCC2CCN(c3ncccn3)CC2)c2nn[nH]c2n1` [Example 84, 7-((1-(Pyrimidin-2-yl)piperidin-4-yl)methoxy)-3H-[1,2,3]triazolo[4,5-b]pyridin-5-amine] showed an IC50 of 60 to 150 nM. In the case of `Nc1cc(OCc2ncc(Br)cc2F)c2nn[nH]c2n1` [Example 87, 7-((5-Bromo-3-fluoropyridin-2-yl)methoxy)-3H-[1,2,3]triazolo[4,5-b]pyridin-5-amine], the IC50 is reported as at most 60 nM. `Nc1cc(OCc2cc(Cl)ncc2F)c2nn[nH]c2n1` [Example 88, 7-((2-Chloro-5-fluoropyridin-4-yl)methoxy)-3H-[1,2,3]triazolo[4,5-b]pyridin-5-amine] was tested, and the IC50 was 60 to 150 nM. Work on `Nc1cc(OCc2ncccc2F)c2nn[nH]c2n1` [Example 89, 7-((3-Fluoropyridin-2-yl)methoxy)-3H-[1,2,3]triazolo[4,5-b]pyridin-5-amine] yielded an IC50 of at most 60 nM. In the case of `Nc1cc(OCc2cnccc2Cl)c2nn[nH]c2n1` [Example 91, 7-((4-Chloropyridin-3-yl)methoxy)-3H-[1,2,3]triazolo[4,5-b]pyridin-5-amine], the IC50 is reported as 60 to 150 nM. `Nc1cc(OCc2ccc(Br)cn2)c2nn[nH]c2n1` [Example 92, 7-((5-Bromopyridin-2-yl)methoxy)-3H-[1,2,3]triazolo[4,5-b]pyridin-5-amine] gave an IC50 of 60 to 150 nM. With `Cn1nc(COc2cc(N)nc3[nH]nnc23)cc1Br` [Example 93, 7-((5-Bromo-1-methyl-1H-pyrazol-3-yl)methoxy)-3H-[1,2,3]triazolo[4,5-b]pyridin-5-amine] the IC50 was at most 60 nM. With `Nc1cc(OCc2nc(Br)ccc2F)c2nn[nH]c2n1` [Example 95, 7-((6-Bromo-3-fluoropyridin-2-yl)methoxy)-3H-[1,2,3]triazolo[4,5-b]pyridin-5-amine] the IC50 was at most 60 nM. Compound `Cn1ccc(-c2ccc(F)c(COc3cc(N)nc4[nH]nnc34)n2)n1` [Example 96, 7-((3-Fluoro-6-(1-methyl-1H-pyrazol-3-yl)pyridin-2-yl)methoxy)-3H-[1,2,3]triazolo[4,5-b]pyridin-5-amine] has an IC50 of at most 60 nM. For `Nc1cc(OCc2nc(-c3ccc(N4CCNCC4)nc3)ccc2F)c2nn[nH]c2n1` [Example 97, 7-((5-fluoro-6′-(piperazin-1-yl)-[2,3′-bipyridin]-6-yl)methoxy)-3H-[1,2,3] triazolo[4,5-b]pyridin-5-amine], the IC50 was at most 60 nM. `Nc1cc(OCc2nc(-c3ccc(C4CC4)nc3)ccc2F)c2nn[nH]c2n1` [Example 98, 7-((6′-cyclopropyl-S-fluoro-[2,3′-bipyridin]-6-yl)methoxy)-3H-[1,2,3]triazolo[4,5-b] pyridin-5-amine] was tested, and the IC50 was at most 60 nM. With `Nc1cc(OCc2ncc(-c3ccc(N4CCNCC4)nc3)cc2F)c2nn[nH]c2n1` [Example 99, 7-((5-fluoro-6′-(piperazin-1-yl)-[3,3′-bipyridin]-6-yl)methoxy)-3H-[1,2,3] triazolo[4,5-b]pyridin-5-amine] the IC50 was at most 60 nM. In the case of `Nc1cc(OCc2ncc(-c3ccc(C4CC4)nc3)cc2F)c2nn[nH]c2n1` [Example 101, 7-((6′-cyclopropyl-5-fluoro-[3,3′-bipyridin]-6-yl)methoxy)-3H-[1,2,3]triazolo[4,5-b] pyridin-5-amine], the IC50 is reported as at most 60 nM. Compound `Cn1nc(COc2cc(N)nc3[nH]nnc23)cc1-c1ccc(CO)nc1` [Example 103, (5-(3-(((5-amino-3H-[1,2,3]triazolo[4,5-b]pyridin-7-yl)oxy)methyl)-1-methyl-1H-pyrazol-5-yl)pyridin-2-yl)methanol] has an IC50 of 60 to 150 nM. `Cn1nc(COc2cc(N)nc3[nH]nnc23)cc1-c1ccc(N2CCNCC2)nc1` [Example 104, 7-((1-methyl-5-(6-(piperazin-1-yl)pyridin-3-yl)-1H-pyrazol-3-yl)methoxy)-3H-[1,2,3]triazolo[4,5-b]pyridin-5-amine] gave an IC50 of at most 60 nM. In the case of `CN1CCN(c2ccc(-c3cc(COc4cc(N)nc5[nH]nnc45)nn3C)cn2)CC1` [Example 105, 7-((1-methyl-5-(6-(4-methylpiperazin-1-yl)pyridin-3-yl)-1H-pyrazol-3-yl)methoxy)-3H-[1,2,3]triazolo[4,5-b]pyridin-5-amine], the IC50 is reported as at most 60 nM. Work on `CN1CCN(c2ccc(-c3cnc(COc4cc(N)nc5[nH]nnc45)c(F)c3)cn2)CC1` [Example 107, 7-((5-fluoro-6′-(4-methylpiperazin-1-yl)-[3,3′-bipyridin]-6-yl)methoxy)-3H-[1,2,3] triazolo[4,5-b]pyridin-5-amine] yielded an IC50 of at most 60 nM. `Nc1cc(OCc2ncc(-c3ccc(CO)nc3)cc2F)c2nn[nH]c2n1` [Example 108, (6′-(((5-amino-3H-[1,2,3]triazolo[4,5-b]pyridin-7-yl)oxy)methyl)-5′-fluoro-[3,3′-bipyridin]-6-yl)methanol] was tested, and the IC50 was 60 to 150 nM. `Nc1cc(OCc2cc(-c3ccc(N4CCNCC4)nc3)ncc2F)c2nn[nH]c2n1` [Example 110, 7-((5-fluoro-6′-(piperazin-1-yl)-[2,3′-bipyridin]-4-yl)methoxy)-3H-[1,2,3] triazolo[4,5-b]pyridin-5-amine] showed an IC50 of at most 60 nM. `Nc1cc(OCc2cc(-c3ccc(CO)nc3)ncc2F)c2nn[nH]c2n1` [Example 111, (4-(((5-amino-3H-[1,2,3]triazolo[4,5-b]pyridin-7-yl)oxy)methyl)-5-fluoro-[2,3′-bipyridin]-6′-yl)methanol] gave an IC50 of 60 to 150 nM.

Same assay, conditions: MPO peroxidation assay IC50 values (binned), MPO peroxidation (Amplex Red), ranges given
`Nc1cc(OCc2nn(-c3ccccc3)nc2CO)c2nn[nH]c2n1` [Example 64, (5-(((5-Amino-3H-[1,2,3]triazolo[4,5-b]pyridin-7-yl)oxy)methyl)-2-phenyl-2H-1,2,3-triazol-4-yl)methanol] showed an IC50 of 60 to 150 nM.
